Test results from patent US20040091935A1, “Strains of Mycoplasma hyorhinis as causative agent for systemic sclerosis” (priority 2002, published 2004).
“Also recorded” adds a separate entry of the source. Starred links: 1 amine or outer side, 2 acyl side, 3 side chain; linkers in the order of their positions; H or OH if unused. Positions of bridges follow the written chain, without caps; N, C: chain ends. Non-standard residues stand in square brackets, D forms with d. Residues, ends and D or L forms follow the SMILES beside them. Chains are numbered I, II in the order given. Actinocin(9to1) = Cc1c2oc3c(C)ccc(C(=O)[*:1])c3nc-2c(C(=O)[*:2])c(N)c1=O; NMeV = CN[C@H](C(=O)O)C(C)C; Sar = CNCC(=O)O

System: Mycoplasma hyorhinis
Assay: Plaque assay of the infectious agent on Vero cell monolayers with antibiotics
Type: cell-based
Conditions: ciprofloxacin 0.5 mg/ml, doxicycline 1 mg/ml, antibiotic added for 24 hours or 7 days, assay sensitivity 10 pfu/ml, FIG. 12

SMILES | Plaque formation induced by the infectious agent
C[C@H]1c2cccc(O)c2C(O)=C2C(=O)[C@]3(O)C(O)=C(C(N)=O)C(=O)[C@@H](N(C)C)[C@@H]3[C@@H](O)[C@@H]21 [doxicyclin] | prevented plaque formation; also recorded: inhibited
Cc1c2oc3c(C)ccc(C(=O)N[C@@H]4C(=O)N[C@H](C(C)C)C(=O)N5CCC[C@H]5C(=O)N(C)CC(=O)N(C)[C@@H](C(C)C)C(=O)O[C@@H]4C)c3nc-2c(C(=O)N[C@@H]2C(=O)N[C@H](C(C)C)C(=O)N3CCC[C@H]3C(=O)N(C)CC(=O)N(C)[C@@H](C(C)C)C(=O)O[C@@H]2C)c(N)c1=O [actinomycin D] (I: T[dV]P[Sar][NMeV] / II: T[dV]P[Sar][NMeV]; ester I:1-I:C, II:1-II:C; linker I:N-II:N via Actinocin(9to1)) | prevented plaque formation
